From PMC10804683, “Identification of the pyridoxal 5′‐phosphate allosteric site in human pyridox(am)ine 5′‐phosphate oxidase” (Protein Science : A Publication of the Protein Society, 2024)
Positions count from the first letter of the chain named. Entries after “also recorded” stand apart in the source; their conditions may differ.

Key:
human PNPO F48A variant = target: T1, human PNPO F48A variant (Homo sapiens, UniProt Q9NVS9, F48A); experiment: PLP inhibition kinetics of PNP oxidation, F48A; assay type: biochemical; parameters: a main form corresponding to the entire protein; made in house; host or cells: E. coli BL21(DE3); conditions: F48A (behavior much less marked than wild type); Na-HEPES pH 7.6, 2 μM enzyme, PLP 0–16 μM
T1 sequence (Q9NVS9 1-261 F48A): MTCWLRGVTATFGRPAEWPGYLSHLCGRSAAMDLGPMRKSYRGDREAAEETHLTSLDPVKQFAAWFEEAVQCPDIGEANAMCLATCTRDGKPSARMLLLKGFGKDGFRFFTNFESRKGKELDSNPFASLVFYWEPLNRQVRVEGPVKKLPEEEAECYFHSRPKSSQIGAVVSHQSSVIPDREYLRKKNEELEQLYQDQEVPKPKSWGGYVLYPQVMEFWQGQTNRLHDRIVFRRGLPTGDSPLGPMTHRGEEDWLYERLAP
Experimental: This is a general inhibition mechanism that takes into account the possibility of PLP binding to both the active and allosteric sites. PLP binding at the active site gives a complete, competitive inhibition, whereas PLP binding at the allosteric site yields a substrate‐enzyme‐PLP ternary complex that is still catalytically active, although k CAT is reduced by a coefficient whose value is around 0.15. A thorough inhibition kinetic characterization was carried out with the wild type, F48A, F48A/E50L/R258L, and F48A/E50L/H248N/R258L PNPO forms, so as to evaluate the effect of the variations on the allosteric properties of the enzyme. The initial velocity of PNP conversion into PLP was measured in Na‐HEPES buffer (in which PLP is allowed to accumulate) by varying substrate concentration at different, fixed exogenous PLP concentrations, using 2 μM enzyme. A series of saturation curves were obtained that were used to fit the Michaelis–Menten equation (Figure 5), acquiring apparent V MAX and K M values as a function of PLP concentration. […]
FIGURE 5 Characterization of PLP inhibition. Upper panels: The initial velocity of the reaction was measured with 2 μM wild type (a), and the F48A (b), F48A/E50L/R258L (c), and F48A/E50L/H248N/R258L (d) PNPO variants, varying PNP concentration while keeping exogenous PLP fixed at different concentrations (0, 0.25, 0.5, 1, 2, 4, 8, and 16 μM). […]

[1] = target: T2, human PNPO F48A/E50L/R161C/R258L variant (holo-enzyme) (Homo sapiens, UniProt Q9NVS9, E50L/F48A/R161C/R258L); experiment: PLP binding by fluorescence, F48A/E50L/R161C/R258L (35% FMN-saturated); conditions: text: titrated by exciting at 280 nm
T2 construct: a main form corresponding to the entire protein; made in house; host or cells: E. coli BL21(DE3)
T2 sequence (Q9NVS9 1-261 F48A/E50L/R161C/R258L): T1 sequence (Q9NVS9 1-261 F48A) with E50L, R161C, R258L
From the text: PLP binding to PNPO can be detected and quantitatively measured using differential scanning fluorimetry (DSF) and also by measuring FMN fluorescence changes. We had previously attributed DSF changes to PLP binding at the active site, while FMN fluorescence changes were attributed to PLP binding at the allosteric site (Barile et al., [2019], [2020]). Previous experiments carried out with the PNPO R161C variant, affecting a residue that is essential for substrate binding and catalysis (and therefore also for PLP binding at the active site), confirms that DSF measurements only report PLP binding at the active site (Barile et al., [2021]; Table 1). […] We expected to observe no FMN fluorescence changes upon titration of the variants with PLP. However, this was not the case, and the dissociation constant values obtained by observing the FMN fluorescence emission were only up to threefold larger in the variants with respect to wild type PNPO (Figure 3). […] To check the second possibility, we measured intrinsic fluorescence changes of wild type and variant apo‐forms (i.e., without FMN) upon PLP titration. […]
Analyses of PLP binding, based on FMN fluorescence increase observed upon binding of PLP to PNPO, were performed as described in Barile et al. ([2020]). […] Emission spectra were recorded from […], with excitation and emission slits set at 3 and 5 nm, respectively. […]

Cc1ncc(COP(=O)(O)O)c(C=O)c1O [PLP, pyridoxal 5′‐phosphate]
type of inhibition of PNP oxidation by PLP (human PNPO F48A variant): typical hyperbolic increase of 1/V MAX and the parabolic increase of K M/V MAX | PLP binding KD^FLUO [1]: no variation in the emitted fluorescence was observed; also recorded: No binding
